Experimental data as given in ChEMBL document CHEMBL1909046, “DrugMatrix in vitro pharmacology data”.

Key:
[1] = target: T1, Alpha-1B adrenergic receptor (Rattus norvegicus, UniProt P15823); assay: DRUGMATRIX: Alpha-1B adrenergic receptor radioligand binding (ligand: prazosin); format: cell membranes, Wistar, Liver, Membrane; details: Not Active = under 50% inhibition at 10 µM
T1 sequence (P15823 whole entry): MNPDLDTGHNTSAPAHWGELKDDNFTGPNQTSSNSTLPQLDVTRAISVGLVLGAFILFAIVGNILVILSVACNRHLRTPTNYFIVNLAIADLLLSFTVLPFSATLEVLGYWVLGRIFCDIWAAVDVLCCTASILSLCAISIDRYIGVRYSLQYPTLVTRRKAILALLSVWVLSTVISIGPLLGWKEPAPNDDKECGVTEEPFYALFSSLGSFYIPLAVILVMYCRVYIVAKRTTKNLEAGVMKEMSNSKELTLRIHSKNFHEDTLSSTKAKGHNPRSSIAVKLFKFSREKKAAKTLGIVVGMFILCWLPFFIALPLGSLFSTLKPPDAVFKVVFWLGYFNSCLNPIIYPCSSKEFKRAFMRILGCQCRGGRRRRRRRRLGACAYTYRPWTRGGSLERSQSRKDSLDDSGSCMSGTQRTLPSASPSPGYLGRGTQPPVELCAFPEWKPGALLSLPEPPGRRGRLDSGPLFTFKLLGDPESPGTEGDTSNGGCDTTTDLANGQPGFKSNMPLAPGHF

[2] = target: Sodium-dependent noradrenaline transporter (Homo sapiens, UniProt P23975); assay: DRUGMATRIX: Norepinephrine Transporter radioligand binding (ligand: [125I] RTI-55); format: cell membranes, MDCK, Membrane; details: Not Active = under 50% inhibition at 10 µM
Sodium-dependent noradrenaline transporter, sequence (P23975 whole entry): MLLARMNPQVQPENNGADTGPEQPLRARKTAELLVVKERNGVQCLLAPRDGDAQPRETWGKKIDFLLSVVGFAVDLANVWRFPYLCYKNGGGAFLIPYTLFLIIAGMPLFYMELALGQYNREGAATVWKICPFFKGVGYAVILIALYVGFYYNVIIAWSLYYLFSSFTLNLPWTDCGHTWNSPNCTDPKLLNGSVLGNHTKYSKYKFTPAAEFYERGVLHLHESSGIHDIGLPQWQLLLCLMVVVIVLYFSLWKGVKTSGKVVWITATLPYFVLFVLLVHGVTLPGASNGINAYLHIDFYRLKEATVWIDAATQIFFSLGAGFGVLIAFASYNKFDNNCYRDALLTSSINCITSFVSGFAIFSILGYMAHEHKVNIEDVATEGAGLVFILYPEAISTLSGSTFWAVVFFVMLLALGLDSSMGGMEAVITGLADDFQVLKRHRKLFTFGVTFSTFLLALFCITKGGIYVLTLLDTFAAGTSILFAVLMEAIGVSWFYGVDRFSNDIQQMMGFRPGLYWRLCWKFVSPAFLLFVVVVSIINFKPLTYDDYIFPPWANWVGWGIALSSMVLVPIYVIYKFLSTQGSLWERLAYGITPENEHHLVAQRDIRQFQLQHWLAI

[3] = DRUGMATRIX: Glutamate, AMPA radioligand binding (ligand: [3H] AMPA); format: cell membranes, Rattus norvegicus, Wistar, Cerebral cortex, Membrane; details: Not Active = under 50% inhibition at 10 µM
[4] = DRUGMATRIX: Glutamate, NMDA, Phencyclidine radioligand binding (ligand: [3H] TCP); format: cell membranes, Rattus norvegicus, Wistar, Cerebral cortex, Membrane; details: Not Active = under 50% inhibition at 10 µM
[5] = target: Mitogen-activated protein kinase 3 (Homo sapiens, UniProt P27361); assay: DRUGMATRIX: Protein Serine/Threonine Kinase, ERK1 enzyme inhibition (substrate: Myelin Basic Protein); parameters: species or system Escherichia coli; details: Not Active = under 50% inhibition at 10 µM
Mitogen-activated protein kinase 3, sequence (P27361 whole entry): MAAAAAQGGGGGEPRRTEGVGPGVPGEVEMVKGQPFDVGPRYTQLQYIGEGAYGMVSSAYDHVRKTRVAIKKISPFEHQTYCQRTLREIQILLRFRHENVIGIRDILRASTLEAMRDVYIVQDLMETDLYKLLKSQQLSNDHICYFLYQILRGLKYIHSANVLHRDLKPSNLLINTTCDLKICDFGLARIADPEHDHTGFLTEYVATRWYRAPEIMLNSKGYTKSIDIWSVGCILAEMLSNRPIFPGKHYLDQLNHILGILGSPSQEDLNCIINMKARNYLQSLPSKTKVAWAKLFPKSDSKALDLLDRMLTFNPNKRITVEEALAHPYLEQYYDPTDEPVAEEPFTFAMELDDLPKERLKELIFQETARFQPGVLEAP

Adenosine receptor A2a = Adenosine receptor A2a (Homo sapiens, UniProt P29274); assay: DRUGMATRIX: Adenosine A2A radioligand binding (ligand: […]); format: cell membranes, HEK293, Membrane; details: hek293; Not Active = under 50% inhibition at 10 µM
Adenosine receptor A2a, sequence (P29274 whole entry): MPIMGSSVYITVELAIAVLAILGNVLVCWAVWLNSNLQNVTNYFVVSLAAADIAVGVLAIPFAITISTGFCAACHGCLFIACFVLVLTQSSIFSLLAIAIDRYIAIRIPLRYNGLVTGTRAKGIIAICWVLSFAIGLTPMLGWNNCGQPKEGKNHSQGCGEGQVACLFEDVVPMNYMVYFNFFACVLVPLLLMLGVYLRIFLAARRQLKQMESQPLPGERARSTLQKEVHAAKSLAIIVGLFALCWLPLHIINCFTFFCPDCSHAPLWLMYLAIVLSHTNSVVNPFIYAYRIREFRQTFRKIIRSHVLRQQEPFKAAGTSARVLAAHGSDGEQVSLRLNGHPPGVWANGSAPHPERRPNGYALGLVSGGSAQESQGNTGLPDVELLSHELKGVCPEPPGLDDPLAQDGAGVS

| Compound | IC50 ([1]; read-out: IC50) [µM] | Ki ([1]; read-out: Ki) [µM] | IC50 ([2]; read-out: IC50) [µM] | Ki ([2]; read-out: Ki) [µM] | IC50 [3] | Ki [3] | IC50 [4] | Ki [4] | IC50 [5] | IC50 (Adenosine receptor A2a) | IC50 [1] | IC50 ([2]; mdck) | Ki [1] | Ki ([2]; mdck) | Ki [5] | Ki (Adenosine receptor A2a) | IC50 ([5]; read-out: IC50) [µM] |
| --- | --- | --- | --- | --- | --- | --- | --- | --- | --- | --- | --- | --- | --- | --- | --- | --- | --- |
| CC(CCc1ccc(O)cc1)NCCc1ccc(O)c(O)c1 (configuration not stated) [DOBUTAMINE] | 0.336 | 0.186 | 0.383 | 0.38 | Not Active | Not Active | Not Active | Not Active | Not Active | Not Active | – | – | – | – | – | – | – |
| Nc1nc(Cl)nc2c1ncn2[C@H]1C[C@H](O)[C@@H](CO)O1 [CLADRIBINE] | – | – | – | – | Not Active | Not Active | Not Active | Not Active | Not Active | Not Active | Not Active | Not Active | – | – | – | – | – |
| Cc1cccc(Nc2cc(Cl)nc(SCC(=O)O)n2)c1C [PIRINIXIC ACID] | – | – | – | – | Not Active | Not Active | Not Active | Not Active | Not Active | Not Active | Not Active | Not Active | – | – | – | – | – |
| INSULIN HUMAN | – | – | – | – | Not Active | Not Active | Not Active | Not Active | Not Active | Not Active | Not Active | Not Active | Not Active | Not Active | Not Active | Not Active | – |
| CCn1cc(C(=O)O)c(=O)c2cc(F)c(N3CCNCC3)nc21 [ENOXACIN] | – | – | – | – | Not Active | Not Active | Not Active | Not Active | Not Active | Not Active | Not Active | Not Active | – | – | – | – | – |
| O=C(O)c1cc(=O)c2c(OCC(O)COc3cccc4oc(C(=O)O)cc(=O)c34)cccc2o1 [CROMOLYN] | – | – | – | – | Not Active | Not Active | Not Active | Not Active | Not Active | Not Active | Not Active | Not Active | – | – | – | – | – |
| CC(=O)OCC(CCn1cnc2cnc(N)nc21)COC(C)=O [FAMCICLOVIR] | – | – | – | – | Not Active | Not Active | Not Active | Not Active | Not Active | Not Active | Not Active | Not Active | – | – | – | – | – |
| O=P1(N(CCCl)CCCl)NCCCO1 (configuration not stated) [CYCLOPHOSPHAMIDE ANHYDROUS] | – | – | – | – | Not Active | Not Active | Not Active | Not Active | Not Active | Not Active | Not Active | Not Active | – | – | – | – | – |
| O=c1cc(-c2ccccc2)oc2ccc3ccccc3c12 [BETA-NAPHTHOFLAVONE] | – | – | – | – | Not Active | Not Active | Not Active | Not Active | – | Not Active | Not Active | Not Active | – | – | – | – | 5.47 |
| CC(C)(Sc1cc(C(C)(C)C)c(O)c(C(C)(C)C)c1)Sc1cc(C(C)(C)C)c(O)c(C(C)(C)C)c1 [PROBUCOL] | – | – | – | – | Not Active | Not Active | Not Active | Not Active | Not Active | Not Active | Not Active | Not Active | – | – | – | – | – |
| CO[C@@]1(NC(=O)CSCC#N)C(=O)N2C(C(=O)O)=C(CSc3nnnn3C)CS[C@@H]21 [CEFMETAZOLE] | – | – | – | – | Not Active | Not Active | Not Active | Not Active | Not Active | Not Active | Not Active | Not Active | – | – | – | – | – |
| CC(=O)O[C@]1(C(C)=O)CC[C@H]2[C@@H]3C=C(C)C4=CC(=O)CC[C@]4(C)[C@H]3CC[C@@]21C [MEGESTROL ACETATE] | – | – | – | – | Not Active | Not Active | Not Active | Not Active | Not Active | Not Active | Not Active | Not Active | – | – | – | – | – |
| COc1cc(CNC(=O)CCCC/C=C/C(C)C)ccc1O [CAPSAICIN] | – | – | – | – | Not Active | Not Active | Not Active | Not Active | Not Active | Not Active | Not Active | Not Active | – | – | – | – | – |
| CC(C)(C)c1ccc(S(=O)(=O)/C=C/C#N)cc1 [BAY-11-7085] | – | – | – | – | Not Active | Not Active | Not Active | Not Active | Not Active | Not Active | Not Active | Not Active | – | – | – | – | – |
| CC[C@H](C)C(=O)O[C@H]1C[C@@H](C)C=C2C=C[C@H](C)[C@H](CC[C@@H]3C[C@@H](O)CC(=O)O3)[C@H]21 [LOVASTATIN] | – | – | 8.75 | 8.68 | Not Active | Not Active | Not Active | Not Active | Not Active | Not Active | Not Active | – | – | – | – | – | – |
| O=C(c1ccccc1Cl)N1CCC(Cc2ccccc2)CC1 | – | – | – | – | Not Active | Not Active | Not Active | Not Active | Not Active | Not Active | Not Active | Not Active | – | – | – | – | – |
| CCOC(=O)[C@H](CCc1ccccc1)N[C@@H](C)C(=O)N1Cc2ccccc2C[C@H]1C(=O)O | – | – | – | – | Not Active | Not Active | Not Active | Not Active | Not Active | Not Active | Not Active | Not Active | – | – | – | – | – |
| CC[C@H]1OC(=O)[C@H](C)[C@@H](O[C@H]2C[C@@](C)(OC)[C@@H](O)[C@H](C)O2)[C@H](C)[C@@H](O[C@@H]2O[C@H](C)C[C@H](N(C)C)[C@H]2O)[C@](C)(O)C[C@@H](C)CN(C)[C@H](C)[C@@H](O)[C@]1(C)O [AZITHROMYCIN] | – | – | – | – | Not Active | Not Active | Not Active | Not Active | Not Active | Not Active | Not Active | Not Active | – | – | – | – | – |
| Cc1cccc(Nc2ccccc2C(=O)O)c1C [MEFENAMIC ACID] | – | – | – | – | Not Active | Not Active | Not Active | Not Active | Not Active | Not Active | Not Active | Not Active | – | – | – | – | – |
| COC(=O)c1ccccc1O [METHYL SALICYLATE] | – | – | – | – | Not Active | Not Active | Not Active | Not Active | Not Active | Not Active | Not Active | Not Active | – | – | – | – | – |
| CC[C@H](C)C(=O)O[C@H]1C[C@H](O)C=C2C=C[C@H](C)[C@H](CC[C@@H](O)C[C@@H](O)CC(=O)O)[C@H]21 [PRAVASTATIN] | – | – | – | – | Not Active | Not Active | Not Active | Not Active | Not Active | Not Active | Not Active | Not Active | – | – | – | – | – |
| N[C@@H](Cc1ccc(F)cc1)C(=O)O | – | – | – | – | Not Active | Not Active | Not Active | Not Active | Not Active | Not Active | Not Active | Not Active | – | – | – | – | – |
| C[C@]12C/C(=C/O)C(=O)C[C@@H]1CC[C@@H]1[C@@H]2CC[C@@]2(C)[C@H]1CC[C@]2(C)O [OXYMETHOLONE] | – | – | – | – | Not Active | Not Active | Not Active | Not Active | Not Active | Not Active | Not Active | Not Active | – | – | – | – | – |
| Clc1cc2c(cc1Cl)Oc1cc(Cl)c(Cl)cc1O2 [2,3,7,8-TETRACHLORODIBENZO-P-DIOXIN] | – | – | – | – | Not Active | Not Active | Not Active | Not Active | Not Active | Not Active | Not Active | Not Active | – | – | – | – | – |
| OCCO [ETHYLENE GLYCOL] | – | – | – | – | Not Active | Not Active | Not Active | Not Active | Not Active | Not Active | Not Active | Not Active | – | – | – | – | – |
| NC[C@H]1O[C@H](O[C@H]2[C@H](O)[C@@H](O[C@H]3O[C@H](CO)[C@@H](O)[C@H](N)[C@H]3O)[C@H](N)C[C@@H]2N)[C@H](O)[C@@H](O)[C@@H]1O [KANAMYCIN] | – | – | – | – | Not Active | Not Active | Not Active | Not Active | Not Active | Not Active | Not Active | Not Active | – | – | – | – | – |
| O=C(/C=C/c1ccc(O)c(O)c1)OCCc1ccccc1 [CAFFEIC ACID PHENETHYL ESTER] | – | – | 3.79 | 3.76 | Not Active | Not Active | Not Active | Not Active | Not Active | Not Active | Not Active | – | – | – | – | – | – |
| NC[C@@H]1O[C@H](O[C@H]2[C@@H](O)[C@H](O[C@@H]3[C@@H](O)[C@H](N)C[C@H](N)[C@H]3O[C@H]3O[C@H](CN)[C@@H](O)[C@H](O)[C@H]3N)O[C@@H]2CO)[C@H](N)[C@@H](O)[C@@H]1O [FRAMYCETIN] | – | – | – | – | Not Active | Not Active | Not Active | Not Active | Not Active | Not Active | Not Active | Not Active | – | – | – | – | – |
